# Measurements as given in patent US8192962B2, “Processes for detecting toxic substances” (Daikin Industries, Ltd., priority 2001, dated 2012).
# Test system: Energy system protein genes
# Test: DNA chip mRNA expression in yeast, energy system protein genes (Table 4)
# Format: cell-based, Saccharomyces cerevisiae S288C
# Method in brief: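 Whole-genome yeast DNA chip hybridization (65° C., >12 h) of Cy-labeled cDNA from S288C cells exposed 2 h at 25° C. to a sub-lethal toxicant dose in YPD; value is intensity relative to chemical-free control.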
substance,measurement,setting,value
Na2As [(1)],The level of expressed mRNA in the presence of chemical substance/The level of expressed mRNA in the absence of chemical substance,yeast gene YJR048W,1.3
same,The level of expressed mRNA in the presence of chemical substance/The level of expressed mRNA in the absence of chemical substance,"yeast gene YJR121W, cells incubated two hours with the chemical substance",1.2
same,The level of expressed mRNA in the presence of chemical substance/The level of expressed mRNA in the absence of chemical substance,yeast gene YJR155W,7.6
same,The level of expressed mRNA in the presence of chemical substance/The level of expressed mRNA in the absence of chemical substance,"yeast gene YKL016C, cells incubated two hours with the chemical substance",1.5
same,The level of expressed mRNA in the presence of chemical substance/The level of expressed mRNA in the absence of chemical substance,"yeast gene YKL060C, cells incubated two hours with the chemical substance",1.7
same,The level of expressed mRNA in the presence of chemical substance/The level of expressed mRNA in the absence of chemical substance,"yeast gene YKL141W, cells incubated two hours with the chemical substance",1.6
same,The level of expressed mRNA in the presence of chemical substance/The level of expressed mRNA in the absence of chemical substance,"yeast gene YKL148C, cells incubated two hours with the chemical substance",0.9
same,The level of expressed mRNA in the presence of chemical substance/The level of expressed mRNA in the absence of chemical substance,"yeast gene YKR009C, cells incubated two hours with the chemical substance",1.0
same,The level of expressed mRNA in the presence of chemical substance/The level of expressed mRNA in the absence of chemical substance,"yeast gene YKR058W, cells incubated two hours with the chemical substance, 25° C., YPD medium",1.3
same,The level of expressed mRNA in the presence of chemical substance/The level of expressed mRNA in the absence of chemical substance,yeast gene YKR097W,1.6
same,The level of expressed mRNA in the presence of chemical substance/The level of expressed mRNA in the absence of chemical substance,"yeast gene YLL041C, cells incubated two hours with the chemical substance",1.5
same,The level of expressed mRNA in the presence of chemical substance/The level of expressed mRNA in the absence of chemical substance,"yeast gene YLR038C, cells incubated two hours with the chemical substance",2.6
same,The level of expressed mRNA in the presence of chemical substance/The level of expressed mRNA in the absence of chemical substance,"yeast gene YLR044C, cells incubated two hours with the chemical substance",0.8
same,The level of expressed mRNA in the presence of chemical substance/The level of expressed mRNA in the absence of chemical substance,"yeast gene YLR134W, cells incubated two hours with the chemical substance",0.9
same,The level of expressed mRNA in the presence of chemical substance/The level of expressed mRNA in the absence of chemical substance,"yeast gene YLR258W, cells incubated two hours with the chemical substance",1.7
same,The level of expressed mRNA in the presence of chemical substance/The level of expressed mRNA in the absence of chemical substance,"yeast gene YLR284C, cells incubated two hours with the chemical substance",0.9
same,The level of expressed mRNA in the presence of chemical substance/The level of expressed mRNA in the absence of chemical substance,"yeast gene YLR295C, cells incubated two hours with the chemical substance, 25° C., YPD medium",1.5
same,The level of expressed mRNA in the presence of chemical substance/The level of expressed mRNA in the absence of chemical substance,"yeast gene YLR304C, cells incubated two hours with the chemical substance",0.7
same,The level of expressed mRNA in the presence of chemical substance/The level of expressed mRNA in the absence of chemical substance,yeast gene YLR345W,1.4
same,The level of expressed mRNA in the presence of chemical substance/The level of expressed mRNA in the absence of chemical substance,"yeast gene YLR354C, cells incubated two hours with the chemical substance",1.2
same,The level of expressed mRNA in the presence of chemical substance/The level of expressed mRNA in the absence of chemical substance,"yeast gene YLR377C, cells incubated two hours with the chemical substance",1.1
same,The level of expressed mRNA in the presence of chemical substance/The level of expressed mRNA in the absence of chemical substance,"yeast gene YLR395C, cells incubated two hours with the chemical substance",1.8
same,The level of expressed mRNA in the presence of chemical substance/The level of expressed mRNA in the absence of chemical substance,yeast gene YML087C,1.8
same,The level of expressed mRNA in the presence of chemical substance/The level of expressed mRNA in the absence of chemical substance,"yeast gene YML120C, cells incubated two hours with the chemical substance",1.1
same,The level of expressed mRNA in the presence of chemical substance/The level of expressed mRNA in the absence of chemical substance,"yeast gene YML129C, cells incubated two hours with the chemical substance",1.1
same,The level of expressed mRNA in the presence of chemical substance/The level of expressed mRNA in the absence of chemical substance,"yeast gene YMR073C, cells incubated two hours with the chemical substance",1.1
same,The level of expressed mRNA in the presence of chemical substance/The level of expressed mRNA in the absence of chemical substance,yeast gene YMR118C,1.3
same,The level of expressed mRNA in the presence of chemical substance/The level of expressed mRNA in the absence of chemical substance,"yeast gene YMR205C, cells incubated two hours with the chemical substance",0.5
same,The level of expressed mRNA in the presence of chemical substance/The level of expressed mRNA in the absence of chemical substance,"yeast gene YMR261C, cells incubated two hours with the chemical substance",0.8
same,The level of expressed mRNA in the presence of chemical substance/The level of expressed mRNA in the absence of chemical substance,"yeast gene YMR267W, cells incubated two hours with the chemical substance, 25° C., YPD medium",0.8
same,The level of expressed mRNA in the presence of chemical substance/The level of expressed mRNA in the absence of chemical substance,"yeast gene YMR323W, cells incubated two hours with the chemical substance",0.8
same,The level of expressed mRNA in the presence of chemical substance/The level of expressed mRNA in the absence of chemical substance,yeast gene YNL071W,0.9
same,The level of expressed mRNA in the presence of chemical substance/The level of expressed mRNA in the absence of chemical substance,"yeast gene YNL202W, cells incubated two hours with the chemical substance",0.7
same,The level of expressed mRNA in the presence of chemical substance/The level of expressed mRNA in the absence of chemical substance,yeast gene YNL241C,1.3
same,The level of expressed mRNA in the presence of chemical substance/The level of expressed mRNA in the absence of chemical substance,yeast gene YNL331C,8.6
same,The level of expressed mRNA in the presence of chemical substance/The level of expressed mRNA in the absence of chemical substance,"yeast gene YOL086C, cells incubated two hours with the chemical substance",1.1
same,The level of expressed mRNA in the presence of chemical substance/The level of expressed mRNA in the absence of chemical substance,yeast gene YOL165C,10.1
same,The level of expressed mRNA in the presence of chemical substance/The level of expressed mRNA in the absence of chemical substance,"yeast gene YOR142W, cells incubated two hours with the chemical substance",1.3
same,The level of expressed mRNA in the presence of chemical substance/The level of expressed mRNA in the absence of chemical substance,"yeast gene YOR178C, cells incubated two hours with the chemical substance",1.4
same,The level of expressed mRNA in the presence of chemical substance/The level of expressed mRNA in the absence of chemical substance,"yeast gene YOR388C, cells incubated two hours with the chemical substance",1.0
same,The level of expressed mRNA in the presence of chemical substance/The level of expressed mRNA in the absence of chemical substance,"yeast gene YPL031C, cells incubated two hours with the chemical substance",0.9
same,The level of expressed mRNA in the presence of chemical substance/The level of expressed mRNA in the absence of chemical substance,"yeast gene YPL061W, cells incubated two hours with the chemical substance",0.4
same,The level of expressed mRNA in the presence of chemical substance/The level of expressed mRNA in the absence of chemical substance,yeast gene YPL088W,3.3
same,The level of expressed mRNA in the presence of chemical substance/The level of expressed mRNA in the absence of chemical substance,yeast gene YPL171C,15.2
same,The level of expressed mRNA in the presence of chemical substance/The level of expressed mRNA in the absence of chemical substance,yeast gene YPL240C,0.7
same,The level of expressed mRNA in the presence of chemical substance/The level of expressed mRNA in the absence of chemical substance,"yeast gene YPL262W, cells incubated two hours with the chemical substance",1.1
same,The level of expressed mRNA in the presence of chemical substance/The level of expressed mRNA in the absence of chemical substance,"yeast gene YPL275W, cells incubated two hours with the chemical substance",0.6
same,The level of expressed mRNA in the presence of chemical substance/The level of expressed mRNA in the absence of chemical substance,"yeast gene YPL276W, cells incubated two hours with the chemical substance",1.2
same,The level of expressed mRNA in the presence of chemical substance/The level of expressed mRNA in the absence of chemical substance,"yeast gene YPR048W, cells incubated two hours with the chemical substance",1.3
same,The level of expressed mRNA in the presence of chemical substance/The level of expressed mRNA in the absence of chemical substance,"yeast gene YPR184W, cells incubated two hours with the chemical substance",1.2
